Peptide text beside a SMILES is read from it. * marks the point of attachment. NOTA = O=C(O)CN1CCN(CC(=O)O)CCN(CC(=O)*)CC1; AEEEA = NCCOCCOCCOCC(=O)O
Legend:
[1] = Partition coefficient (log P), 1-octanol/PBS; type: physicochemical; details: shake-flask 3 mL 1-octanol / 3 mL PBS pH 7.4, vortex 10 min, centrifugation 10,000 rpm 10 min, γ-counter, mean ± SD, n = 5
Description: The partition coefficients were assessed using the method described previously. [^68Ga]Ga-HN11-1 and [^68Ga]Ga-HN11-2 was respectively introduced into a mixture comprising 3 mL of 1-octanol and 3 mL of phosphate-buffered saline (PBS) with a pH of 7.4. Following vortexing for 10 minutes and subsequent centrifugation at 10,000 rpm for 10 minutes, samples were taken from both layers and counted using a γ-counter. The log P was determined using the formula: log P = log([M]oct/[M]aq). All measurements were conducted using 5 independent samples and are presented as mean ± standard deviation (SD).

PD-L2 = molecular target: T1, PD-L2 (Homo sapiens, UniProt Q9BQ51); assay: [^68Ga]Ga-HN11-1 PET/CT imaging in cancer patients; type: in vivo
T1 construct: from tissue; host or cells: tumour lesions (NSCLC, recurrent or metastatic HNSCC) in living patients
T1 sequence (Q9BQ51 20-273): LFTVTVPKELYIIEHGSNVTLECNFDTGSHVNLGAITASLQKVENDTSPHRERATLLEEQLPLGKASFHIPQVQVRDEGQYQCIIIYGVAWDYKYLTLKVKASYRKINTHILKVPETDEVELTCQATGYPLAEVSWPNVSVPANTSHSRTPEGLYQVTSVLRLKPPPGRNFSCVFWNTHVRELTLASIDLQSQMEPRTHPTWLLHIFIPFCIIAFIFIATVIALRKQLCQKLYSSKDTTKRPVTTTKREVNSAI
Description: The program content was explained to all healthy volunteers and cancer patients, and written informed consent was obtained. Whole-body dynamic imaging was conducted for 60 min using a PET/CT 690 Elite scanner (GE Discovery) immediately after intravenous injection of [^68Ga]Ga-HN11-1 (3.1 to 4.9 MBq/kg). A static body scan was performed 15 to 45 min after injection. All cancer patients underwent [^18F]F-FDG and [^68Ga]Ga-HN11-1 PET/CT imaging within 5 d. Two nuclear medicine physicians reconstructed and reviewed the images on GE aw 4.6 workstations and reached a consensus. They delineated the ROIs and measured the values of maximum standard uptake and average standard uptake (SUVmax and SUVmean). The biological distribution of [^68Ga]Ga-HN11-1 in healthy volunteers was determined by SUVmax and SUVmean. The OLINDA/EXM software (version 1.0, Hermes Medical Solutions AB) was used to estimate the human radiation dose based on the SUVmean of each organ.

[2] = Pharmacokinetics in blood; type: in vivo; details: healthy BALB/C mouse, i.v. 5.55 MBq, noncompartmental model, Phoenix WinNonlin 8.1
Description: The static PET/CT imaging in A549 and A549-PD-L2 xenograft models after injection of 5.55 to 7.4 MBq (150 to 200 μCi) of [^68Ga]Ga-HN11-1 or [^68Ga]Ga-HN11-2 were acquired at 60 min. In the [^68Ga]Ga-HN11-1 + block or [^68Ga]Ga-HN11-2 + block groups, the xenograft models underwent pretreatment via intravenous injection of HN11-1 or HN-2 (10 mg/kg) before PET/CT imaging. Then, ROIs were delineated for each group. After imaging, tumor tissues from both the A549 and A459-PD-L2 xenograft tumors were extracted, and the PD-L2 expression was tested by IHC. For the pharmacokinetics study, healthy BALB/C mouse received an intravenous injection of 5.55 MBq (150 μCi) of [^68Ga]Ga-HN11-1 and [^68Ga]Ga-HN11-2. Measure the activity of blood samples (%ID/g, mean ± SD) at the corresponding time points, and the time-activity curve was plotted. Subsequently, pharmacokinetic parameters were tested using the noncompartmental model in Phoenix WinNonlin 8.1 software (Certara, USA).

logD [1]: -0.3 ± 0.0017 | median SUVmax (PD-L2; all patients, n = 6): 3.25 | HN11-1 SUVmax (PD-L2; patient 1, NSCLC, lung, PD-L2 expression 80 %): 4.1 | HN11-1 SUVmax (PD-L2; patient 2, NSCLC, lung, PD-L2 expression 15 %): 2.1 | HN11-1 SUVmax (PD-L2; patient 3, rHNSCC, buccal): 4.0 | HN11-1 SUVmax (PD-L2; patient 4, rHNSCC, buccal): 3.0 | half-life in blood [2]: 13.37 min
Structure (SMILES): CC[C@H](C)[C@H](NC(=O)[C@H](CCCNC(=N)N)NC(=O)CNC(=O)[C@H](CCC(=O)O)NC(=O)[C@H](CC(N)=O)NC(=O)[C@H](Cc1ccc(O)cc1)NC(=O)[C@H](CCCNC(=N)N)NC(=O)[C@H](Cc1ccc(O)cc1)NC(=O)[C@H](Cc1c[nH]cn1)NC(=O)COCCOCCOCCNC(=O)CN1CCN(CC(=O)O)CCN(CC(=O)O)CC1)C(=O)N[C@@H](CCCNC(=N)N)C(=O)N[C@@H](CC(N)=O)C(=O)O [[^68Ga]Ga-HN11-1, metal not drawn] ({NOTA-AEEEA}-HYRYNEGRIRN-OH)

Reference: PMC11528066, “Noninvasive Monitoring of Programmed Death-Ligand 2 Expression with Positron Emission Tomography using ^68Ga-labeled Peptide Antagonist in Preclinical and Exploratory Human Studies” (Research, 2024)
